Each structure is given as a SMILES string. Counter-ions that a name gives are not always drawn.

Data set [1] in a line: In vitro rat liver S9 stability assay, formation of tafamidis. It is filed as in vitro ADME. The note with it: rat liver S9, 37° C., 1 µM test compound. The procedure: The test compound was added to liver S9 and incubated at 37° C. in a water bath at a concentration of 1 µM. At each time point (0, 5, 10, 20, 30 and 60 min), stop solution (tolbutamide plus labetalol) was added to precipitate protein and mixed thoroughly. After centrifugation, an aliquot of supernatant was analyzed by LC-MS/MS. The percentage of formation of active agent was calculated at each time point.

Data set [2] can be described thus: In vitro rat plasma stability assay, formation of tafamidis. It is filed as in vitro ADME. The note with it: 37° C., 2 µM test compound. As for the experimental part:
A stability assay in plasma (rat or human) was used to evaluate the ability of a compound provided herein to convert to an active TTR stabilizer. The test compound was added to plasma and incubated at 37° C. in a water bath at a concentration of 2 µM. At each time point (0, 10, 30, 60 and 120 min or 0, 60, 120, 180 and 240 min), stop solution (tolbutamide plus labetalol) was added to precipitate protein and mixed thoroughly. After centrifugation, an aliquot of supernatant was analyzed by LC-MS/MS. The percentage of formation of active agent was calculated at each time point.

As for `O=C(OC1CCNC1)c1ccc2nc(-c3cc(Cl)cc(Cl)c3)oc2c1` (stereo not drawn) [Compound 17, pyrrolidin-3-yl 2-(3,5-dichlorophenyl)benzo[d]oxazole-6-carboxylate hydrochloride], the “Formation of tafamidis at 60 min” value in data set [1] was “A (A is <25%)”. In addition, in data set [2], the “Formation of tafamidis at 120 min” value is recorded as “A (A is <25%)”.

`CC(C)(C)OC(=O)N1CC2CCC1CC2OC(=O)c1ccc2nc(-c3cc(Cl)cc(Cl)c3)oc2c1` (stereo not drawn) [Compound 26, 2-(tert-butoxycarbonyl)-2-azabicyclo[2.2.2]octan-5-yl 2-(3,5-dichlorophenyl) benzo [d] oxazole-6-carboxylate]: the “Formation of tafamidis at 60 min” value in data set [1] is reported as “A (A is <25%)”. The “Formation of tafamidis at 120 min” value in data set [2] is “A (A is <25%)”. `O=C(OC1CC2CCC1CN2)c1ccc2nc(-c3cc(Cl)cc(Cl)c3)oc2c1` (stereo not drawn) [Compound 27, 2-azabicyclo[2.2.2]octan-5-yl 2-(3,5-dichlorophenyl)benzo [d]oxazole-6-carboxylate hydrochloride]: the “Formation of tafamidis at 60 min” value in data set [1] was “A (A is <25%)”. Moreover, the “Formation of tafamidis at 120 min” value in data set [2] was “A (A is <25%)”.

On to `CN1CC2CCC1CC2OC(=O)c1ccc2nc(-c3cc(Cl)cc(Cl)c3)oc2c1` (stereo not drawn) [Compound 32, 2-methyl-2-azabicyclo[2.2.2]octan-5-yl 2-(3,5-dichlorophenyl) benzo [d]oxazole-6-carboxylate], for which, in data set [1], the “Formation of tafamidis at 60 min” value is on record as “A (A is <25%)”. For the same compound, the “Formation of tafamidis at 120 min” value in data set [2] is on record as “A (A is <25%)”. As to `O=C(OCCN1CCCCC1)c1ccc2nc(-c3cc(Cl)cc(Cl)c3)oc2c1` [Compound 34, 2-(piperidin-1-yl)ethyl 2-(3,5-dichlorophenyl)benzo[d] oxazole-6-carboxylate], in data set [1], the “Formation of tafamidis at 60 min” value is recorded as “C (C is ≥50 to <75%)”. In addition, in data set [2], the “Formation of tafamidis at 120 min” value is on record as “A (A is <25%)”.

For `CN1CCCC1COC(=O)c1ccc2nc(-c3cc(Cl)cc(Cl)c3)oc2c1` (stereo not drawn) [Compound 61, (1-methylpyrrolidin-2-yl)methyl 2-(3,5-dichlorophenyl)benzo [d] oxazole-6-carboxylate], the “Formation of tafamidis at 60 min” value in data set [1] is “C (C is ≥50 to <75%)”. Moreover, the “Formation of tafamidis at 120 min” value in data set [2] is on record as “D (D is ≥75%)”. In the case of `N[C@H](Cc1ccc(OC(=O)c2ccc3nc(-c4cc(Cl)cc(Cl)c4)oc3c2)cc1)C(=O)O` [Compound 71], in data set [2], the “Formation of tafamidis at 120 min” value was “A (A is <25%)”.

Regarding `CC(C)(C)OC(=O)N[C@H](Cc1cccc(OC(=O)c2ccc3nc(-c4cc(Cl)cc(Cl)c4)oc3c2)c1)C(=O)O` [Compound 72], the “Formation of tafamidis at 120 min” value in data set [2] was “B (B is ≥25 to <50%)”. On to `O=C(OCCN1CCOCC1)c1ccc2nc(-c3cc(Cl)cc(Cl)c3)oc2c1` [Compound 80], for which the “Formation of tafamidis at 60 min” value in data set [1] is “D (D is ≥75%)”. Also, the “Formation of tafamidis at 120 min” value in data set [2] is “B (B is ≥25 to <50%)”. On to `O=C(OCCCN1CCOCC1)c1ccc2nc(-c3cc(Cl)cc(Cl)c3)oc2c1` [Compound 81], for which the “Formation of tafamidis at 120 min” value in data set [2] is “D (D is ≥75%)”. Still for that read-out and setting: for `O=C(OCCCN1CCNCC1)c1ccc2nc(-c3cc(Cl)cc(Cl)c3)oc2c1` [Compound 83] the value was “D (D is ≥75%)”.

As to `O=C(OCCCN1CCS(=O)(=O)CC1)c1ccc2nc(-c3cc(Cl)cc(Cl)c3)oc2c1` [Compound 84], the “Formation of tafamidis at 120 min” value in data set [2] was “D (D is ≥75%)”. Take `O=C(OCC1CCCO1)c1ccc2nc(-c3cc(Cl)cc(Cl)c3)oc2c1` (stereo not drawn) [Compound 86]: the “Formation of tafamidis at 60 min” value in data set [1] was “D (D is ≥75%)”. Also, in data set [2], the “Formation of tafamidis at 120 min” value is listed as “D (D is ≥75%)”. For `O=C(OCc1ncc[nH]1)c1ccc2nc(-c3cc(Cl)cc(Cl)c3)oc2c1` [Compound 89], in data set [1], the “Formation of tafamidis at 60 min” value is listed as “D (D is ≥75%)”. For the same compound, in data set [2], the “Formation of tafamidis at 120 min” value was “C (C is ≥50 to <75%)”. `O=C(OCc1ncco1)c1ccc2nc(-c3cc(Cl)cc(Cl)c3)oc2c1` [Compound 91]: the “Formation of tafamidis at 120 min” value in data set [2] was “C (C is ≥50 to <75%)”. `CC(C)(C)N1CCC(OC(=O)c2ccc3nc(-c4cc(Cl)cc(Cl)c4)oc3c2)C1` (stereo not drawn) [Compound 92]: the “Formation of tafamidis at 60 min” value in data set [1] is “A (A is <25%)”. Moreover, in data set [2], the “Formation of tafamidis at 120 min” value is on record as “B (B is ≥25 to <50%)”. For `CN1CCN(CCOC(=O)c2ccc3nc(-c4cc(Cl)cc(Cl)c4)oc3c2)CC1` [Compound 93], the “Formation of tafamidis at 120 min” value in data set [2] is listed as “B (B is ≥25 to <50%)”.

In the case of `CN1CCN(CCCOC(=O)c2ccc3nc(-c4cc(Cl)cc(Cl)c4)oc3c2)CC1` [Compound 94], the “Formation of tafamidis at 120 min” value in data set [2] is recorded as “C (C is ≥50 to <75%)”. Take `O=C(OC1CCOC1)c1ccc2nc(-c3cc(Cl)cc(Cl)c3)oc2c1` (stereo not drawn) [Compound 95]: in data set [2], the “Formation of tafamidis at 120 min” value was “D (D is ≥75%)”. As to `O=C(OCCC1CCOC1)c1ccc2nc(-c3cc(Cl)cc(Cl)c3)oc2c1` (stereo not drawn) [Compound 96, 2-(tetrahydrofuran-3-yl)ethyl 2-(3,5-dichlorophenyl)benzo[d] oxazole-6-carboxylate], in data set [2], the “Formation of tafamidis at 120 min” value is “C (C is ≥50 to <75%)”. On the same count and under the same terms, then `O=C(OCCC1CCCO1)c1ccc2nc(-c3cc(Cl)cc(Cl)c3)oc2c1` (stereo not drawn) [Compound 97], with “A (A is <25%)”. On to `Cn1ccnc1COC(=O)c1ccc2nc(-c3cc(Cl)cc(Cl)c3)oc2c1` [Compound 98], for which the “Formation of tafamidis at 60 min” value in data set [1] is “D (D is ≥75%)”. For the same compound, the “Formation of tafamidis at 120 min” value in data set [2] was “C (C is ≥50 to <75%)”. Regarding `O=C(OCCn1ccnc1)c1ccc2nc(-c3cc(Cl)cc(Cl)c3)oc2c1` [Compound 99], the “Formation of tafamidis at 60 min” value in data set [1] was “D (D is ≥75%)”. Further, the “Formation of tafamidis at 120 min” value in data set [2] was “B (B is ≥25 to <50%)”. Turning to `O=C(OCCCC1CCOC1)c1ccc2nc(-c3cc(Cl)cc(Cl)c3)oc2c1` (stereo not drawn) [Compound 100], the “Formation of tafamidis at 120 min” value in data set [2] is given as “D (D is ≥75%)”. Turning to `O=C(OCCCC1CCCO1)c1ccc2nc(-c3cc(Cl)cc(Cl)c3)oc2c1` (stereo not drawn) [Compound 101], the “Formation of tafamidis at 120 min” value in data set [2] was “C (C is ≥50 to <75%)”. Take `O=C(OCc1ccccn1)c1ccc2nc(-c3cc(Cl)cc(Cl)c3)oc2c1` [Compound 103]: the “Formation of tafamidis at 60 min” value in data set [1] is reported as “D (D is ≥75%)”. The “Formation of tafamidis at 120 min” value in data set [2] is recorded as “B (B is ≥25 to <50%)”. Take `O=C(OC1CCc2nccn2C1)c1ccc2nc(-c3cc(Cl)cc(Cl)c3)oc2c1` (stereo not drawn) [Compound 157, 5,6,7,8-tetrahydroimidazo[1,2-a]pyridin-6-yl 2-(3,5-dichlorophenyl)benzo[d]oxazole-6-carboxylate hydrochloride]: the “Formation of tafamidis at 60 min” value in data set [1] is reported as “A (A is <25%)”. The “Formation of tafamidis at 120 min” value in data set [2] is recorded as “B (B is ≥25 to <50%)”. Taken in the same sequence, the figures for `CN1CC(OC(=O)c2ccc3nc(-c4cc(Cl)cc(Cl)c4)oc3c2)C(F)(F)C1` (stereo not drawn) [Compound 175] were “D (D is ≥75%)” and “D (D is ≥75%)”. For the compound `N#CCN1CCC(OC(=O)c2ccc3nc(-c4cc(Cl)cc(Cl)c4)oc3c2)C1` (stereo not drawn) [Compound 176], in data set [1], the “Formation of tafamidis at 60 min” value was “D (D is ≥75%)”. Moreover, the “Formation of tafamidis at 120 min” value in data set [2] is listed as “C (C is ≥50 to <75%)”.

As to `Cn1ccnc1CCOC(=O)c1ccc2nc(-c3cc(Cl)cc(Cl)c3)oc2c1` [Compound 177], the “Formation of tafamidis at 60 min” value in data set [1] was “D (D is ≥75%)”. For the same compound, in data set [2], the “Formation of tafamidis at 120 min” value is recorded as “D (D is ≥75%)”.

Turning to `CC(CCn1ccnc1)OC(=O)c1ccc2nc(-c3cc(Cl)cc(Cl)c3)oc2c1` (stereo not drawn) [Compound 178, 4-(1H-imidazol-1-yl)butan-2-yl 2-(3,5-dichlorophenyl)-benzo [d] oxazole-6-carboxylate], the “Formation of tafamidis at 60 min” value in data set [1] was “C (C is ≥50 to <75%)”. In data set [2], the “Formation of tafamidis at 120 min” value is given as “C (C is ≥50 to <75%)”. Regarding `N#CCCN1CCC(OC(=O)c2ccc3nc(-c4cc(Cl)cc(Cl)c4)oc3c2)C1` (stereo not drawn) [Compound 179], the “Formation of tafamidis at 60 min” value in data set [1] is reported as “C (C is ≥50 to <75%)”. For the same compound, the “Formation of tafamidis at 120 min” value in data set [2] is listed as “B (B is ≥25 to <50%)”.

On to `O=C(OC1CCN2CCCC12)c1ccc2nc(-c3cc(Cl)cc(Cl)c3)oc2c1` (stereo not drawn) [Compound 180, Hexahydro-1H-pyrrolizin-1-yl 2-(3,5-dichlorophenyl)benzo[d]oxazole-6-carboxylate], for which the “Formation of tafamidis at 60 min” value in data set [1] is listed as “A (A is <25%)”. Moreover, in data set [2], the “Formation of tafamidis at 120 min” value is “B (B is ≥25 to <50%)”. For `CCNC(=O)c1ccc2nc(-c3cc(Cl)cc(Cl)c3)oc2c1` [Compound 183], in data set [1], the “Formation of tafamidis at 60 min” value is listed as “A (A is <25%)”. Further, the “Formation of tafamidis at 120 min” value in data set [2] is “A (A is <25%)”.

In the case of `CC1CCC(OC(=O)c2ccc3nc(-c4cc(Cl)cc(Cl)c4)oc3c2)C1` (stereo not drawn) [Compound 185], in data set [1], the “Formation of tafamidis at 60 min” value was “B (B is ≥25 to <50%)”. In addition, the “Formation of tafamidis at 120 min” value in data set [2] is given as “A (A is <25%)”.

Values taken from US20230287021A1, “COMPOUNDS, COMPOSITIONS AND METHODS FOR STABILIZING TRANSTHYRETIN AND INHIBITING TRANSTHYRETIN MISFOLDING” (Protego Biopharma, Inc., priority 2020, published 2023).
